From patent publication US20060135587A1, “Method and compounds for promoting healing and reducing inflammation” (priority 2002, published 2006)

Experiments:
[1] = tested on: myocardial infarction; assay: Clinical comparison of Compound 2 and Riboxin in subacute myocardial infarction (Example 25); type: in vivo, human
Method: A total of 94 patients were examined; of these:
Conventional therapy as for example 24 was given to 30 patients. Each patient continued to receive the treatment which s/he had been given prior to commencement of the trial. Compound 2 was administered in addition to the previous treatment.
All the patients underwent standard laboratory tests prior to commencement of Compound 2 therapy, 14 days after the beginning of the course and upon completion of the course. The tests included clinical blood analysis; general urine analysis; evaluation of creatinine, bilirubin, transaminase activity, blood sugar, cholesterol and β-lipoproteins, malonic dialdehyde, Schiff bases, zinc, iron, copper, plasma potassium and sodium, prothrombin and fibrinogen; and an ECG examination in dynamics.
All the patients received conventional therapy, i.e. nitrates, anticoagulants and/or hypotensive agents as appropriate.
Combination therapy included Compound 2 (1st group—32 patients) or Riboxin (2nd group—18 patients). The agents were administered at a dose of 200 mg three times per day.

[2] = tested on: neurogenic dystrophy of the myocardium; assay: Myocardial infarction model (electrostimulation of aortic arch), creatine phosphate in rat myocardium; type: in vivo, rats
Description: The effect of Compound 2 on myocardial tissue in an experimental model of myocardial infarction was examined. In this model system neurogenic dystrophy of the myocardium was induced in rats or rabbits by electrical stimulation of the reflexogenic zone of the aortic arch by implanted electrodes for a period of three hours. […] These changes are accompanied by changes in biochemical indicators such as creatine phosphate, cAMP, and calcium ion concentrations, and changes in the activity of redox enzymes such as succinate dehydrogenase, lactate dehydrogenase, and glucose-6-phosphate dehydrogenase. At a later stage organic lesions of the myocardium such as necrotic and fibrosclerotic foci can be observed.
The effect of Compound 2 given intraperitoneally or orally on these indicators was examined in rats and rabbits following electrostimulation as described above. The effects on levels of creatine phosphate in rat myocardial are shown in Table 19, and the effects on adenosine triphosphatase (ATPase), succinate dehydrogenase and glucose-6-phosphate dehydrogenase rabbit myocardium are shown in Table 20. The effects on cAMP and Ca^++ levels in rabbit myocardial tissue are shown in FIG. 5, and effects on creatine kinase in rabbit myocardium and blood and the levels of creatine phosphate in myocardium are shown in FIG. 6.

[3] = tested on: cryogenic injuries of the sigmoid colon; assay: Cryogenic damage of the colon, model of ulcerative colitis; type: in vivo, rats; settings: day 7
Method: A model of cryogenic damage of the colon was used in this experiment to simulate ulcerative colitis. Cryogenic injuries of the sigmoid colon of rats were induced by pressing a metal rod of […] in diameter cooled in liquid nitrogen to the serous membrane of the colon for 10 seconds under ether anaesthesia.
Tests were performed on 67 male rats weighing 180-200 g, with 8 animals in each group. Animals were kept in separate cages, with normal food and water ad libitum. The test compounds were administered orally on the second day after the operation, and then daily until healing was complete. Compound 2 or Compound 6 was administered to test animals at a dose of 20-50 mg/kg. The following agents were used for comparison:
The nature of the healing of the ulcer injury was examined morphologically on days 1, 3 and 7. […] The inflammatory process extends beyond the injured area into the adjacent areas, and beyond the peritoneum into fatty connective tissue.

[4] = tested on: bradykinin-induced inflammation; assay: Bradykinin-induced acute inflammation in rats; type: in vivo
Method: Acute inflammation was induced by sub-plantar injection of 0.1 ml of 0.01% of bradykinin in saline solution into the left paws of male rats weighing 180-200 g. The acuteness of the inflammation was assessed 30 minutes after injection of bradykinin by the change in the paw volume. The anti-inflammatory effect, assessed by the reduction of swelling, was expressed as a percentage of the initial paw […] compared to controls. The test substances were administered orally via an intra-gastric tube for three days and at one hour before administration of bradykinin. […] These were administered orally to rats for 3 days and at one hour before the injection of the agent. There were 12 rats in each group.

[5] = tested on: cryogenic injury of the oral mucosa; assay: Healing of mouth ulcers caused by cryogenic injury in rats; type: in vivo; settings: 50 mg/kg; morphological analysis
Method: A model of mouth ulcers using ulcers caused by cryogenic injury of the inner surface of the cheek was used for this purpose. Tests were performed on 110 male rats weighing 180-200 g, with 10 animals in each group. Ulcers were created in experimental animals by pressing a metal rod of 2.5 mm in diameter cooled in liquid nitrogen to the mucosa for 10 seconds under ether anaesthesia. Animals were kept in separate cages, with normal food and water ad libitum. Treatment was administered by spraying of the mucous membrane of the mouth, 24 hours after wounding and then daily until healing was complete. Compound 2 was administered to the animals at a dose of 50 mg/kg (2 ml of aqueous solution). The following groups of animals were used:
The progress of wound healing was examined morphologically on days 1, 3, 7 and 14. On the day 3 the lesions were progressively worse, resulting in the growth of necrotic changes with the formation of a wide necrotic zone at the bottom of the wound, and growth and expansion of acute inflammation involving the muscle, skin and mucosa beyond the wound area. On day 7, the wounds in half of the animals were partially cleared of the necrotic mass, accompanied by the development of granulation tissue at the bottom of the wound and in the adjacent mucosa. […]

[6] = 200 mg three times per day plus conventional therapy
[7] = patients with repeated myocardial infarct

`CC[n+]1cn(C)c(C(=O)NC)c1C(=O)NC.O=S(=O)([O-])c1ccccc1` [Compound 2, 1-methyl-3-ethyl-4,5-bis(N-methylcarbamoyl)-imidazolium benzenesulfonate] showed a cholesterol levels [1, 6] of 96.5%, a level of prothrombin [1, 6] of 91.3% and an ejection fraction ([1]; 200 mg three times per day plus conventional therapy, 54.4±1.5% in the absence of the agent) of 60.0±0.5%. The malonic dialdehyde ([1]; 21st day, 1.3 before treatment, normal 1.21) was 1 nmol/mL, the superoxide dismutase levels ([1]; after therapy, 18-20 before treatment, norm 23) was 25 conventional units and the “level of Schiff bases” value ([1]; after therapy, 75 before treatment, normal 60) was 40 conventional units. For the same molecule, the “allergic reactions or side effects” value ([1]; human, in vivo) was “did not develop any allergic reactions or side effects”, the “cases in which cicatrisation took place one or two days earlier” value [1, 7] was 90% and the “time of cicatrisation on the average” value [1, 7] was 27 days. The “Level of creatine phosphate (μM/g) in rat myocardium” value (from here on “Level of creatine phosphate (μM/g)”) ([2]; Oral 10 mg/kg, 3 days after stimulation) was 1.09 ± 0.1 µM/g, the “Level of creatine phosphate (μM/g)” value ([2]; Oral 10 mg/kg, Before stimulation) was 0.80 ± 0.07 µM/g and the “Level of creatine phosphate (μM/g)” value ([2]; intraperitoneal 10 mg/kg, 3 days after stimulation) was 0.95 ± 0.06 µM/g. For the same molecule, the “Level of creatine phosphate (μM/g)” value ([2]; intraperitoneal 10 mg/kg, Before stimulation) was 0.92 ± 0.08 µM/g, the “Level of creatine phosphate (μM/g)” value ([2]; intraperitoneal 20 mg/kg, 3 days after stimulation) was 1.07 ± 0.04 µM/g and the “Level of creatine phosphate (μM/g)” value ([2]; intraperitoneal 20 mg/kg, Before stimulation) was 1.04 ± 0.15 µM/g. For the same molecule, the “cases with complete synchronous regeneration” value ([3]; 20 mg/kg orally) was 100%, the “animals with reduction of the wound area” value ([3]; 50 mg/kg) was 67% and the “Increase in paw volume” value ([4]; 20 mg/kg orally) was 0.41 mL. The “Paw volume 30 minutes after administration of bradykinin” value ([4]; 20 mg/kg orally) was 1.80 ± 0.060 mL, the Paw volume initial ([4]; 20 mg/kg orally) was 1.39 ± 0.040 mL and the “Swelling inhibition (%)” value ([4]; 20 mg/kg orally) was 40.58%. For the same molecule, the “Increase in paw volume” value ([4]; 50 mg/kg orally) was 0.34 mL, the “Paw volume 30 minutes after administration of bradykinin” value ([4]; 50 mg/kg orally) was 1.69 ± 0.060 mL and the Paw volume initial ([4]; 50 mg/kg orally) was 1.35 ± 0.038 mL. For the same molecule, the “Swelling inhibition (%)” value ([4]; 50 mg/kg orally) was 50.72% and the “healing of cryogenic injury of the oral mucosa compared to untreated controls” value [5] was “more pronounced, earlier and more complete healing”.
